Measured values as given in US20240376120A1, “CAMPTOTHECIN COMPOUND, PREPARATION METHOD THEREFOR AND USE THEREOF” (priority 2021, published 2024).
pIC50: −log10 of the molar value. Read-outs that look alike come from different tables or passages of the source.

What was measured:
Format in all cases: cell-based
Settings in all cases: Homo sapiens
[1] = system: MDA-MB-435s cells (human melanoma cells); experiment: MDA-MB-435s cell proliferation inhibitory assay (CellTiter-Glo)
Description: (§1) • 1). […] Resuspend an appropriate amount of cell suspension to 3000 cells/100 μL according to the count, mixed well and then put the corresponding number of cells into a 96-well plate by pipette. • 3). Each hole of the edge was sealed with 100 μL DPBS and put into an incubator for culture. • 4). Day 1 drug addition: Prepare the storage solution of the compound to be tested 1 hour in advance. 24 h after plating, the culture medium was gradiently diluted to a concentration twice the final concentration of each group. Take out the plated cells from the incubator and add 100 μL of the corresponding 2-fold concentration medium to each well by pipette. • 5). Day 1 detected: Take out an appropriate amount of CTG 1 h in advance and the plate was allowed to equilibrate at room temperature for 30 min. 100 μL of CTG was added to each well and shaken for 5 mins, and then standed in the dark for 5 mins, the luminescence value was detected by ELISA. • 6). Day 4 detection: Take an appropriate amount of CTG 1 h in advance and rewarm it at room temperature in the dark. At the same time, take out the plate to be tested from the incubator and leave it to equilibrate at room temperature for 30 minutes; 72 h after adding the drug, 100 μL of culture medium was sucked out with pipette carefully from each cell well, and 100 μL of CTG was added. The mixture was shaken for 5 min, and after equilibration in the dark for 5 min, the luminescence value was detected with ELISA. • 7). Analyze data and write detailed experimental records.
Collect data and convert it into survival rate: Inhibition rate (%)=(100−(OD value of compound−OD value on the first day)/(OD value of control well-OD value on the first day))×100%
(§2) Input the compound into graphpad prism to obtain the corresponding IC50 value.

[2] = system: MCF-7 cells (human breast cancer cells); experiment: MCF-7 cell proliferation inhibitory assay (CellTiter-Glo)
Description: • 1). […] Resuspend an appropriate amount of cell suspension to 4000 cells/100 μL according to the count, mixed well and then put the corresponding number of cells into a 96-well plate by pipette. • 3). Each hole of the edge was sealed with 100 μL DPBS and put into an incubator for culture. • 4). Day 1 drug addition: Prepare the storage solution of the compound to be tested 1 hour in advance. 24 h after plating, the culture medium was gradiently diluted to a concentration twice the final concentration of each group. Take out the plated cells from the incubator and add 100 μL of the corresponding 2-fold concentration medium to each well by pipette.
Day 1 detected: Take out the plate to be tested and an appropriate amount of CTG in advance and rewarm it at room temperature in the dark. 50 μL of CTG was added to each well at 24 h. Shake with the oscillator for 5 minutes, and after balancing in the dark for 5 minutes, detect the luminescence value with a microplate reader; The mixture was shaken for 5 min, and after equilibration in the dark for 5 min, the luminescence value was detected with ELISA. • 6). Day 4 detection: Take an appropriate amount of CTG 1 h in advance and rewarm it at room temperature in the dark. At the same time, take out the plate to be tested from the incubator and leave it to equilibrate at room temperature for 30 minutes; 72 h after adding the drug, 100 μL of culture medium was sucked out with pipette carefully from each cell well, and 50 μL of CTG was added. The mixture was shaken for 5 min, and after equilibration in the dark for 5 min, the luminescence value was detected with ELISA analyzer. • 7). Data analysis and processed.
Collect data and convert it into survival rate: Inhibition rate (%)=(100−(OD value of compound-OD value on the first day)/(OD value of control well-OD value on the first day))×100%
as §2

[3] = system: MDA-MB-231 cells (human breast cancer cells); experiment: MDA-MB-231 cell proliferation inhibitory assay (CellTiter-Glo)
Description: as §1, §2

[4] = MDA-MB-435S, 72 h, read-out: Proliferation inhibition IC50
[5] = MCF7, 72 h, read-out: Proliferation inhibition IC50
[6] = MDA-MB-231, 72 h, read-out: Proliferation inhibition IC50
[7] = MDA-MB-231 cells, 72 h after adding the drug, Table 2, read-out: Proliferation inhibition IC50
[8] = MDA-MB-435s cells, 72 h after adding the drug, Table 3, read-out: Proliferation inhibition IC50

SMILES	pIC50 [1, 4]	pIC50 [2, 5]	pIC50 [3, 6]	other results
CC[C@@]1(O)C(=O)OCc2c1cc1n(c2=O)Cc2cc3ccccc3nc2-1 [Camptothecin]	7.99	7.37	–	–
CC[C@@]1(O)C(=O)OCc2c1cc1n(c2=O)Cc2c-1nc1cc(F)c(C)cc1c2[C@@H](C)NC(C)=O [Compound 1f-1]	8.24	7.82	6.96	–
CC[C@@]1(O)C(=O)OCc2c1cc1n(c2=O)Cc2c-1nc1cc(F)c(C)cc1c2[C@H](C)NC(C)=O [Compound 1f-2]	8.46	7.94	7.13	–
CC[C@@]1(O)C(=O)OCc2c1cc1n(c2=O)Cc2c-1nc1cc(F)c(C)cc1c2[C@H](C)N [Example 2]	8.64	8.59	7.80	–
CC[C@@]1(O)C(=O)OCc2c1cc1n(c2=O)Cc2c-1nc1ccccc1c2[C@@H](C)N [Example 3]	7.95	7.81	6.92	–
CC[C@@]1(O)C(=O)OCc2c1cc1n(c2=O)Cc2c-1nc1ccccc1c2[C@H](C)N [Example 4]	7.79	7.99	6.55	–
CC[C@@]1(O)C(=O)OCc2c1cc1n(c2=O)Cc2c-1nc1ccc(O)cc1c2[C@@H](C)N [Example 5]	7.69	7.91	6.22	–
CC[C@@]1(O)C(=O)OCc2c1cc1n(c2=O)Cc2c-1nc1ccc(O)cc1c2[C@H](C)N [Example 6]	7.43	8.08	5.96	–
CC[C@@]1(O)C(=O)OCc2c1cc1n(c2=O)Cc2c-1nc1cc(F)c(C)cc1c2C(C)(C)N [Example 7]	6.79	7.69	6.49	–
CC[C@@]1(O)C(=O)OCc2c1cc1n(c2=O)Cc2c-1nc1cc(F)c(C)cc1c2[C@@H]1CCCN1 [Example 8]	7.45	7.99	6.68	–
CC[C@@H](N)c1c2c(nc3ccccc13)-c1cc3c(c(=O)n1C2)COC(=O)[C@]3(O)CC [Example 9R]	7.82	7.26	6.74	–
CC[C@H](N)c1c2c(nc3ccccc13)-c1cc3c(c(=O)n1C2)COC(=O)[C@]3(O)CC [Example 9]	7.60	7.60	6.51	–
CC[C@@]1(O)C(=O)OCc2c1cc1n(c2=O)Cc2c-1nc1ccc(O)cc1c2[C@H](C)O [Example 12-1]	7.42	7.49	6.30	–
CC[C@@]1(O)C(=O)OCc2c1cc1n(c2=O)Cc2c-1nc1ccc(O)cc1c2C(C)O (some centres unmarked) [Example 12]	7.23	7.30	5.92	–
CC[C@@]1(O)C(=O)OCc2c1cc1n(c2=O)Cc2c-1nc1cc(F)c(C)cc1c2[C@@H](C)O [Example 12d]	8.80	8.17	7.91	pIC50 ([3]; MDA-MB-231, read-out: MDA-MB-231 Proliferation inhibition IC50): 7.91; pIC50 ([1]; MDA-MB-435S, read-out: MDA-MB-435s Proliferation inhibition IC50): 8.80; pIC50 ([2]; MCF7, read-out: MCF-7 Proliferation inhibition IC50): 8.17
CC[C@@]1(O)C(=O)OCc2c1cc1n(c2=O)Cc2c-1nc1cc(F)c(C)cc1c2[C@H](C)NC(=O)CO [Example 13]	–	8.08	–	pIC50 [3, 7]: 7.10; pIC50 [1, 8]: 8.55
CC[C@@]1(O)C(=O)OCc2c1cc1n(c2=O)Cc2c-1nc1cc(F)c(C)cc1c2[C@H](C)NC(=O)[C@H](C)O [Example 14]	8.42	8.08	7.05	–
CC[C@@]1(O)C(=O)OCc2c1cc1n(c2=O)Cc2c-1nc1cc(F)c(C)cc1c2[C@H](C)NC(=O)[C@@H](C)O [Example 15]	8.38	7.97	6.85	–

SMILES	pIC50 [1, 4]	pIC50 [2, 5]	pIC50 [3, 6]	other results
CC[C@@]1(O)C(=O)OCc2c1cc1n(c2=O)Cc2c-1nc1cc(F)c(C)cc1c2[C@H](C)NC(=O)C1(O)CC1 [Example 16]	8.09	7.91	7.00	–
CC[C@@]1(O)C(=O)OCc2c1cc1n(c2=O)Cc2c-1nc1cc(F)c(C)cc1c2[C@H](C)NC(=O)[C@@H](O)C1CC1 [Example 17]	8.20	8.11	7.01	–
CC[C@@]1(O)C(=O)OCc2c1cc1n(c2=O)Cc2c-1nc1cc(F)c(C)cc1c2[C@H](C)NC(=O)[C@H](O)C(F)(F)F [Example 18]	7.99	7.95	6.82	–
CC[C@@]1(O)C(=O)OCc2c1cc1n(c2=O)Cc2c-1nc1cc(F)c(C)cc1c2[C@H](C)NC(=O)[C@@H](O)C(F)(F)F [Example 19]	7.82	7.82	6.58	–
[2H]C([2H])(O)C(=O)N[C@@H](C)c1c2c(nc3cc(F)c(C)cc13)-c1cc3c(c(=O)n1C2)COC(=O)[C@]3(O)CC [Example 20]	8.57	8.11	6.92	–
CC[C@@]1(O)C(=O)OCc2c1cc1n(c2=O)Cc2c-1nc1cc(F)c(C)cc1c2[C@H](C)NC [Example 21]	8.92	8.38	7.69	–
CC[C@@]1(O)C(=O)OCc2c1cc1n(c2=O)Cc2c-1nc1cc(F)c(C)cc1c2[C@H](C)N(C)C [Example 22]	8.25	8.03	7.22	–
[2H]C([2H])([2H])c1cc2c([C@H](C)N)c3c(nc2cc1F)-c1cc2c(c(=O)n1C3)COC(=O)[C@]2(O)CC [Example 23]	9.12	8.60	8.11	–
CC[C@@]1(O)C(=O)OCc2c1cc1n(c2=O)Cc2c-1nc1cc(F)c(C)cc1c2[C@H](C)[N+](C)(C)C [Example 24]	8.18	7.99	7.10	–
CC[C@@]1(O)C(=O)OCc2c1cc1n(c2=O)Cc2c-1nc1cc(F)c(C)cc1c2[C@H](C)NCCO [Example 25]	7.99	7.52	6.58	–
CC[C@@]1(O)C(=O)OCc2c1cc1n(c2=O)Cc2c-1nc1cc(F)c(C)cc1c2[C@H](C)NCCN(C)C [Example 25a]	8.20	7.59	7.40	–
CC[C@@]1(O)C(=O)OCc2c1cc1n(c2=O)Cc2c-1nc1cc(F)c(C)cc1c2[C@@H](C)NCCN(C)C [Example 25b]	8.02	7.45	7.22	–
CC[C@@]1(O)C(=O)OCc2c1cc1n(c2=O)Cc2c-1nc1cc(F)c(C)cc1c2[C@H](C)NCCNC [Example 25c]	8.48	7.82	7.45	–
CC[C@@]1(O)C(=O)OCc2c1cc1n(c2=O)Cc2c-1nc1cc(F)c(C)cc1c2[C@@H](C)NCCNC [Example 25d]	–	–	–	pIC50 [3, 7]: 7.30; pIC50 [1, 8]: 8.28; pIC50 ([2]; MCF7, MCF-7 cells, 72 h after adding the drug, Table 1, read-out: Proliferation inhibition IC50): 7.65
CC[C@@]1(O)C(=O)OCc2c1cc1n(c2=O)Cc2c-1nc1cc(F)c(C)cc1c2[C@H](C)NC(=O)C1CCCCC1O (some centres unmarked) [Example 26]	8.25	7.45	6.82	–
CC[C@@]1(O)C(=O)OCc2c1cc1n(c2=O)Cc2c-1nc1cc(F)c(C)cc1c2[C@@H](C)NS(C)(=O)=O [Example 26a]	8.55	7.88	7.05	–
CC[C@@]1(O)C(=O)OCc2c1cc1n(c2=O)Cc2c-1nc1cc(F)c(C)c(C)c1c2[C@H](C)N [Example 29a]	8.68	8.35	8.00	–
CC[C@@]1(O)C(=O)OCc2c1cc1n(c2=O)Cc2c-1nc1cc(F)c(C)c(C)c1c2[C@@H](C)N [Example 29b]	9.14	8.68	8.18	–
